Measured values from US20170121315A1, “HETEROBICYCLICALLY SUBSTITUTED 4-OXOBUTANE ACID DERIVATIVES AND USE THEREOF” (priority 2014, published 2017).

How the values were obtained:
MMP-10 = biological target: T1, MMP-10 (Homo sapiens, UniProt P09238); experiment: In vitro MMP-10 inhibition test; assay type: biochemical; conditions: human MMP-10
T1 construct: purchased R&D Systems 910-MP
Source text: (§1) The MMP-mediated amidolytic cleavage of a suitable peptide substrate leads to an increase in fluorescent light here too. The signal intensity of the fluorescent light is directly proportional to the enzyme activity. The active concentration of a test compound at which half the enzyme is inhibited (50% signal intensity of the fluorescent light) is reported as the IC50 value.
(§2) Recombinant MMP-10 (R&D Systems, 910-MP) is chemically activated in accordance with the manufacturer's instructions using APMA. 1 μl of the test compound to be analysed (as a solution in DMSO, suitable concentrations e.g. 1 nM to 30 μM) is pipetted into 24 μl of activated enzyme (final concentration e.g. 2 nM) in reaction buffer (50 mM Tris/HCl pH 7.5, 10 mM CaCl2, 150 mM NaCl, 0.05% Brij®-35) in a white 384-hole microtiter plate (MTP). The enzymatic reaction is started by adding the intramolecularly quenched Mca-Arg-Pro-Lys-Pro-Val-Glu-Nval-Trp-Arg-Lys(Dnp)-NH2 substrate (final concentration e.g. 10 μM; R&D Systems, ES-002), so as to result in a total test volume of 50 μl. The course of the MMP-10 reaction is measured by measuring the fluorescence intensity (excitation 320 nm, emission 410 nm) over a suitable period of time (e.g. over 120 min at a temperature of 32° C.).

MMP-7 = biological target: T2, MMP-7 (Homo sapiens, UniProt P09237); experiment: In vitro MMP-7 inhibition test; assay type: biochemical; conditions: human MMP-7
T2 construct: purchased R&D Systems 907-MP
T2 sequence (P09237 95-267): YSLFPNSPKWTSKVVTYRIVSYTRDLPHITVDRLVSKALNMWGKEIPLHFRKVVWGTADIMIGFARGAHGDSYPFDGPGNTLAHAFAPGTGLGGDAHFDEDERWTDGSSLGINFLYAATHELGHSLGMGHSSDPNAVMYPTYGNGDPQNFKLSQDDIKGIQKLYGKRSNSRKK
Source text: as §1
as §2, with “Recombinant MMP-7 (from R&D” for “Recombinant MMP-10 (R&D”, “Systems, 907-MP)” for “Systems, 910-MP)”, “e.g. 0.5” for “e.g. 2”, “quenched Mca-Pro-Leu-Gly-Leu-Dpa(Dnp)-Ala-Arg-NH2” for “quenched Mca-Arg-Pro-Lys-Pro-Val-Glu-Nval-Trp-Arg-Lys(Dnp)-NH2”, “Systems, ES-001),” for “Systems, ES-002),”, “the MMP-7” for “the MMP-10”

rat hepatocytes = experiment: Hepatocyte assay for determination of metabolic stability; assay type: in vitro ADME; conditions: after incubation with rat hepatocytes
[1] = biological target: T3, human macrophage elastase (HME/hMMP-12) (Homo sapiens, UniProt P39900); experiment: In vitro HME inhibition test (standard or high-sensitivity); assay type: biochemical; conditions: in some cases mean values, rounded to two significant figures
T3 construct: purchased R&D Systems 917-MP
Method in brief: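 Autoactivated HME (0.5 nM; high-sensitivity format 0.05 nM, ~16 h) with 5 μM quenched Mca-PLGLEEA-Dap(Dnp)-NH2 substrate in HEPES pH 7.4, NaCl, CaCl2, ZnCl2, EDTA, Brij buffer, 2 h at 37° C. Fluorescence at ex 323/em 393 nm; IC50 from signal versus concentration.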

T3 sequence (P39900 106-470): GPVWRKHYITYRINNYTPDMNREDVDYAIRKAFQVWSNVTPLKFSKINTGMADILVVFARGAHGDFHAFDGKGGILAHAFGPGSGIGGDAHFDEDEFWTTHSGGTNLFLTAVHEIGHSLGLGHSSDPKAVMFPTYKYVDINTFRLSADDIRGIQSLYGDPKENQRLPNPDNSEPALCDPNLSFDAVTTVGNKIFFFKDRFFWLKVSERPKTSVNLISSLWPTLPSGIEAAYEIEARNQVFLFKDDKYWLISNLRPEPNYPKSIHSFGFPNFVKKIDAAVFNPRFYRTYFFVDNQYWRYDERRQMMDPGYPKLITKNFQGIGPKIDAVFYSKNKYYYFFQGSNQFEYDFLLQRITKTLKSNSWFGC
T1 sequence (P09238 99-476): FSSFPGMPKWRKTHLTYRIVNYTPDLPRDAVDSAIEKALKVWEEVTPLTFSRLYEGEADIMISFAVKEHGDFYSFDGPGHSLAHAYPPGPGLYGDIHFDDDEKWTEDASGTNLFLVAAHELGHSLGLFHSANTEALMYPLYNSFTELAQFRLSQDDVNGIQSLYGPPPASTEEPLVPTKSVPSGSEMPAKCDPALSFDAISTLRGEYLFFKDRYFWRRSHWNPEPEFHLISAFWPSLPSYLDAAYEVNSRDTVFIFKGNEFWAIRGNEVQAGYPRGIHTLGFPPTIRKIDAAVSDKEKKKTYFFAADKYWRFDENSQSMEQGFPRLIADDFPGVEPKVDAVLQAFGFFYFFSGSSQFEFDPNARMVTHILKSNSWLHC

| SMILES | IC50 (MMP-10) | IC50 (MMP-7) | CLblood (calculated blood clearance, well-stirred) (rat hepatocytes) | Fmax (maximum possible bioavailability after oral administration, well-stirred) (rat hepatocytes) | IC50 [1] |
| --- | --- | --- | --- | --- | --- |
| O=C(CC(CCn1nnc2ccc(C(F)(F)F)cc2c1=O)C(=O)O)c1noc2cc(OCC3CCOCC3)ccc12 (racemic) [Example 155, (+/−)-4-Oxo-2-{2-[4-oxo-6-(trifluoromethyl)-1,2,3-benzotriazin-3(4H)-yl]ethyl}-4-[6-(tetrahydro-2H-pyran-4-ylmethoxy)-1,2-benzoxazol-3-yl]butanoic acid] | 5100 nM | 24000 nM | 20.2 mL/min/kg | 71.1% | 0.39 nM |
| O=C(CC(CCn1nnc2ccccc2c1=O)C(=O)O)c1cc2ccc(OCC3CC3)cc2s1 (single isomer, unassigned; (+)) [Example 112, (+)-4-[6-(Cyclopropylmethoxy)-1-benzothiophen-2-yl]-4-oxo-2-[2-(4-oxo-1,2,3-benzotriazin-3(4H)-yl)ethyl]butanoic acid] | 2500 nM | 3200 nM | 33.2 mL/min/kg | 52.5% | 2.2 nM |
| O=C(CC(CCn1nnc2ccccc2c1=O)C(=O)O)c1cc2ccc(OCCc3ccccc3)cc2o1 (racemic) [Example 73, (+/−)-4-Oxo-2-[2-(4-oxo-1,2,3-benzotriazin-3(4H)-yl)ethyl]-4-[6-(2-phenylethoxy)-1-benzofur-2-yl]butanoic acid] | > 40000 nM | > 40000 nM | 23.2 mL/min/kg | 66.9% | 2.8 nM |
| CCCCCOc1ccc2c(C(=O)CC(CCn3nnc4ccccc4c3=O)C(=O)O)noc2c1 (racemic) [Example 140, (+/−)-4-Oxo-2-[2-(4-oxo-1,2,3-benzotriazin-3(4H)-yl)ethyl]-4-[6-(pentyloxy)-1,2-benzoxazol-3-yl]butanoic acid] | 6300 nM | > 40000 nM | 24.8 mL/min/kg | 64.5% | 0.28 nM |
| O=C(O)[C@@H]1[C@@H](Cn2nnc3ccc(C(F)(F)F)cc3c2=O)CC[C@H]1C(=O)c1cc2cc(OCCc3ccccc3)ccc2o1 (single isomer, unassigned; enantiomer 2) [Example 159, (+)-(1RS,2SR,5RS)-2-{[4-Oxo-6-(trifluoromethyl)-1,2,3-benzotriazin-3(4H)-yl]methyl}-5-{[5-(2-phenylethoxy)-1-benzofur-2-yl]carbonyl}cyclopentanecarboxylic acid (enantiomer 2)] | 340 nM | 300 nM | 10.8 mL/min/kg | 84.5% | 0.063 nM |
| O=C(CC(CCn1nnc2ccccc2c1=O)C(=O)O)c1noc2cc(OCc3ccc(F)cc3)ccc12 (racemic) [Example 136, (+/−)-4-{6-[(4-Fluorobenzyl)oxy]-1,2-benzoxazol-3-yl}-4-oxo-2-[2-(4-oxo-1,2,3-benzotriazin-3(4H)-yl)ethyl]butanoic acid] | 12000 nM | > 40000 nM | 12.2 mL/min/kg | 82.7% | 0.63 nM |
| O=C(CC(CCn1nnc2ccccc2c1=O)C(=O)O)c1noc2cc(OCc3ccccc3)ccc12 (racemic) [Example 145, (+/−)-4-[6-(Benzyloxy)-1,2-benzoxazol-3-yl]-4-oxo-2-[2-(4-oxo-1,2,3-benzotriazin-3(4H)-yl)ethyl]butanoic acid] | 10000 nM | > 40000 nM | 25.5 mL/min/kg | 63.7% | 0.71 nM |
| O=C(CC(CCn1nnc2ccccc2c1=O)C(=O)O)c1cc2cc(OCC3CCOCC3)ccc2o1 (racemic) [Example 5, (+/−)-4-Oxo-2-[2-(4-oxo-1,2,3-benzotriazin-3(4H)-yl)ethyl]-4-[5-(tetrahydro-2H-pyran-4-ylmethoxy)-1-benzofur-2-yl]butanoic acid] | 34000 nM | > 40000 nM | 27 mL/min/kg | 61.4% | 2.1 nM |
